Laboratory results reported in ChEMBL document CHEMBL3885881, “DrugMatrix”.

Organism: Rattus norvegicus
Assay: DrugMatrix - Regimen: Daily Repeat
Assay type: toxicity, organism-based, Sprague-Dawley
Design: regimen Daily Repeat, gender Male, age 6-8 weeks
Details: in vivo, po, route oral GAVAGE, vehicle .5 % CMC; for ABSOLUTE BASOPHIL / ABSOLUTE EOSINOPHIL / ABSOLUTE LYMPHOCYTE / ABSOLUTE MONOCYTE / ABSOLUTE SEGMENTED NEUTROPHIL / BASOPHIL / EOSINOPHIL / ERYTHROCYTE COUNT / HEMATOCRIT / HEMOGLOBIN / LEUKOCYTE COUNT / LYMPHOCYTE / MEAN CORPUSCULAR HEMOGLOBIN / MEAN CORPUSCULAR HEMOGLOBIN CONCENTRATION / MEAN CORPUSCULAR VOLUME / MONOCYTE / NEUTROPHIL / NUCLEATED RED BLOOD CELLS / PLATELET COUNT: tissue Blood; for ALANINE AMINOTRANSFERASE / ALBUMIN / ALKALINE PHOSPHATASE / ASPARTATE AMINOTRANSFERASE / BLOOD UREA NITROGEN / CARBON DIOXIDE / CHLORIDE / CHOLESTEROL / CREATINE PHOSPHOKINASE / CREATININE / GLUCOSE / LACTATE DEHYDROGENASE / LIPASE / PHOSPHORUS / POTASSIUM / SODIUM / TOTAL BILIRUBIN / TOTAL PROTEIN / URIC ACID: tissue Plasma
[1] = 0 mg/kg, 72 h, dose level Control, time 3 day
[2] = 0 mg/kg, 120 h, dose level Control, time 5 day
[3] = 59 mg/kg, 72 h, dose level Low, time 3 day
[4] = 59 mg/kg, 120 h, dose level Low, time 5 day

SMILES: Cc1c(-c2ccccc2)oc2c(C(=O)OCCN3CCCCC3)cccc2c1=O [FLAVOXATE]
- ABSOLUTE BASOPHIL [1]: 0 CELLS/uL
- ABSOLUTE EOSINOPHIL [1]: 32.5 CELLS/uL
- ABSOLUTE LYMPHOCYTE [1]: 13494.17 CELLS/uL
- ABSOLUTE MONOCYTE [1]: 474 CELLS/uL
- ABSOLUTE SEGMENTED NEUTROPHIL [1]: 1932.67 CELLS/uL
- BASOPHIL [1]: 0%
- EOSINOPHIL [1]: 0.17%
- ERYTHROCYTE COUNT [1]: 5.45 x10E6/uL
- HEMATOCRIT [1]: 34.32%
- HEMOGLOBIN [1]: 13.82 G/DL
- LEUKOCYTE COUNT [1]: 15.93 x10E3/uL
- LYMPHOCYTE [1]: 84.83%
- MEAN CORPUSCULAR HEMOGLOBIN [1]: 25.38 pg
- MEAN CORPUSCULAR HEMOGLOBIN CONCENTRATION [1]: 40.27 G/DL
- MEAN CORPUSCULAR VOLUME [1]: 63.05 fL
- MONOCYTE [1]: 3%
- NEUTROPHIL [1]: 12%
- NUCLEATED RED BLOOD CELLS [1]: 0.67 /100WBC
- PLATELET COUNT [1]: 1188.5 x10E3/uL
- ALANINE AMINOTRANSFERASE [1]: 54.83 u/L
- ALBUMIN [1]: 4.22 G/DL
- ALKALINE PHOSPHATASE [1]: 427.67 u/L
- ASPARTATE AMINOTRANSFERASE [1]: 86.5 u/L
- BLOOD UREA NITROGEN [1]: 15.33 mg/dL
- CARBON DIOXIDE [1]: 24.83 mmol/L
- CHLORIDE [1]: 102.33 MEQ/L
- CHOLESTEROL [1]: 71.67 mg/dL
- CREATINE PHOSPHOKINASE [1]: 442.5 u/L
- CREATININE [1]: 0.19 mg/dL
- GLUCOSE [1]: 160.67 mg/dL
- LACTATE DEHYDROGENASE [1]: 236.5 u/L
- LIPASE [1]: 9 u/L
- PHOSPHORUS [1]: 11.97 mg/dL
- POTASSIUM [1]: 6.2 MEQ/L
- SODIUM [1]: 142.85 MEQ/L
- TOTAL BILIRUBIN [1]: 0.2 mg/dL
- TOTAL PROTEIN [1]: 5.8 G/DL
- URIC ACID [1]: 1.3 mg/dL
- ABSOLUTE BASOPHIL [2]: 0 CELLS/uL
- ABSOLUTE EOSINOPHIL [2]: 114.5 CELLS/uL
- ABSOLUTE LYMPHOCYTE [2]: 14614 CELLS/uL
- ABSOLUTE MONOCYTE [2]: 173 CELLS/uL
- ABSOLUTE SEGMENTED NEUTROPHIL [2]: 1048.5 CELLS/uL
- BASOPHIL [2]: 0%
- EOSINOPHIL [2]: 0.67%
- ERYTHROCYTE COUNT [2]: 5.66 x10E6/uL
- HEMATOCRIT [2]: 35.52%
- HEMOGLOBIN [2]: 14.27 G/DL
- LEUKOCYTE COUNT [2]: 15.95 x10E3/uL
- LYMPHOCYTE [2]: 91.33%
- MEAN CORPUSCULAR HEMOGLOBIN [2]: 25.23 pg
- MEAN CORPUSCULAR HEMOGLOBIN CONCENTRATION [2]: 40.2 G/DL
- MEAN CORPUSCULAR VOLUME [2]: 62.7 fL
- MONOCYTE [2]: 1.17%
- NEUTROPHIL [2]: 6.83%
- NUCLEATED RED BLOOD CELLS [2]: 0.33 /100WBC
- PLATELET COUNT [2]: 1229 x10E3/uL
- ALANINE AMINOTRANSFERASE [2]: 58.67 u/L
- ALBUMIN [2]: 4.32 G/DL
- ALKALINE PHOSPHATASE [2]: 382.5 u/L
- ASPARTATE AMINOTRANSFERASE [2]: 81.67 u/L
- BLOOD UREA NITROGEN [2]: 17.67 mg/dL
- CARBON DIOXIDE [2]: 27.17 mmol/L
- CHLORIDE [2]: 102.33 MEQ/L
- CHOLESTEROL [2]: 63.67 mg/dL
- CREATINE PHOSPHOKINASE [2]: 227.67 u/L
- CREATININE [2]: 0.23 mg/dL
- GLUCOSE [2]: 155.33 mg/dL
- LACTATE DEHYDROGENASE [2]: 146.5 u/L
- LIPASE [2]: 10.67 u/L
- PHOSPHORUS [2]: 11.93 mg/dL
- POTASSIUM [2]: 6.85 MEQ/L
- SODIUM [2]: 143.95 MEQ/L
- TOTAL BILIRUBIN [2]: 0.18 mg/dL
- TOTAL PROTEIN [2]: 6.02 G/DL
- URIC ACID [2]: 1.63 mg/dL
- ABSOLUTE BASOPHIL [3]: 0 CELLS/uL
- ABSOLUTE EOSINOPHIL [3]: 0 CELLS/uL
- ABSOLUTE LYMPHOCYTE [3]: 10292.33 CELLS/uL
- ABSOLUTE MONOCYTE [3]: 303.67 CELLS/uL
- ABSOLUTE SEGMENTED NEUTROPHIL [3]: 1637.33 CELLS/uL
- BASOPHIL [3]: 0%
- EOSINOPHIL [3]: 0%
- ERYTHROCYTE COUNT [3]: 5.31 x10E6/uL
- HEMATOCRIT [3]: 32.77%
- HEMOGLOBIN [3]: 12.9 G/DL
- LEUKOCYTE COUNT [3]: 12.23 x10E3/uL
- LYMPHOCYTE [3]: 84%
- MEAN CORPUSCULAR HEMOGLOBIN [3]: 24.3 pg
- MEAN CORPUSCULAR HEMOGLOBIN CONCENTRATION [3]: 39.4 G/DL
- MEAN CORPUSCULAR VOLUME [3]: 61.7 fL
- MONOCYTE [3]: 2.67%
- NEUTROPHIL [3]: 13.33%
- NUCLEATED RED BLOOD CELLS [3]: 0.33 /100WBC
- PLATELET COUNT [3]: 1448 x10E3/uL
- ALANINE AMINOTRANSFERASE [3]: 51.33 u/L
- ALBUMIN [3]: 4.17 G/DL
- ALKALINE PHOSPHATASE [3]: 336.67 u/L
- ASPARTATE AMINOTRANSFERASE [3]: 71.67 u/L
- BLOOD UREA NITROGEN [3]: 15 mg/dL
- CARBON DIOXIDE [3]: 24.33 mmol/L
- CHLORIDE [3]: 101.67 MEQ/L
- CHOLESTEROL [3]: 85.67 mg/dL
- CREATINE PHOSPHOKINASE [3]: 168.33 u/L
- CREATININE [3]: 0.14 mg/dL
- GLUCOSE [3]: 167.33 mg/dL
- LACTATE DEHYDROGENASE [3]: 73.67 u/L
- LIPASE [3]: 9.67 u/L
- PHOSPHORUS [3]: 13.13 mg/dL
- POTASSIUM [3]: 6.68 MEQ/L
- SODIUM [3]: 144.33 MEQ/L
- TOTAL BILIRUBIN [3]: 0.2 mg/dL
- TOTAL PROTEIN [3]: 5.6 G/DL
- URIC ACID [3]: 1.77 mg/dL
- ABSOLUTE BASOPHIL [4]: 0 CELLS/uL
- ABSOLUTE EOSINOPHIL [4]: 0 CELLS/uL
- ABSOLUTE LYMPHOCYTE [4]: 14413.67 CELLS/uL
- ABSOLUTE MONOCYTE [4]: 41.67 CELLS/uL
- ABSOLUTE SEGMENTED NEUTROPHIL [4]: 1278 CELLS/uL
- BASOPHIL [4]: 0%
- EOSINOPHIL [4]: 0%
- ERYTHROCYTE COUNT [4]: 5.45 x10E6/uL
- HEMATOCRIT [4]: 34.03%
- HEMOGLOBIN [4]: 13.93 G/DL
- LEUKOCYTE COUNT [4]: 15.73 x10E3/uL
- LYMPHOCYTE [4]: 92%
- MEAN CORPUSCULAR HEMOGLOBIN [4]: 25.57 pg
- MEAN CORPUSCULAR HEMOGLOBIN CONCENTRATION [4]: 40.93 G/DL
- MEAN CORPUSCULAR VOLUME [4]: 62.5 fL
- MONOCYTE [4]: 0.33%
- NEUTROPHIL [4]: 7.67%
- NUCLEATED RED BLOOD CELLS [4]: 0 /100WBC
- PLATELET COUNT [4]: 1355 x10E3/uL
- ALANINE AMINOTRANSFERASE [4]: 45.67 u/L
- ALBUMIN [4]: 4.07 G/DL
- ALKALINE PHOSPHATASE [4]: 365.33 u/L
- ASPARTATE AMINOTRANSFERASE [4]: 71.33 u/L
- BLOOD UREA NITROGEN [4]: 16 mg/dL
- CARBON DIOXIDE [4]: 25 mmol/L
- CHLORIDE [4]: 103.33 MEQ/L
- CHOLESTEROL [4]: 77 mg/dL
- CREATINE PHOSPHOKINASE [4]: 183.67 u/L
- CREATININE [4]: 0.19 mg/dL
- GLUCOSE [4]: 155.67 mg/dL
- LACTATE DEHYDROGENASE [4]: 161.33 u/L
- LIPASE [4]: 9.67 u/L
- PHOSPHORUS [4]: 12.93 mg/dL
- POTASSIUM [4]: 6.66 MEQ/L
- SODIUM [4]: 145.6 MEQ/L
- TOTAL BILIRUBIN [4]: 0.17 mg/dL
- TOTAL PROTEIN [4]: 5.8 G/DL
- URIC ACID [4]: 1.4 mg/dL
